Legend:
[1] = molecular target: T1, linked-luc in SCP28 cells (Photinus pyralis, UniProt P08659, INS416[…]); assay: Linked-luciferase reporter in living SCP28 cells; assay type: cell-based; settings: multiple doses, 30 min after treatment
T1 construct: NLuc and CLuc were linked with 3 repeats of GGGS, flanked by the same restriction sites, and inserted into the same vectors; expressed in transfected cells; host or cells: SCP28 cells stably transduced with pRVPTO retroviral vector
Method: (§1) FIG. 4A, SCP28 cells that stably express split- or linked-luciferase components were treated with multiple doses of C26-A2 or C26-A6. 30 minutes (min) after treatment, culture media was removed and the luciferase activity in the cells was measured. Data represent mean±SEM. n=3 independent experiments.
(§2) C26s inhibit breast cancer progression and metastasis. C26-A2 and A6 were picked for the functional test. To this end, it was tested whether C26-A2 and A6 could inhibit breast cancer progression. […] Next, SCP28 breast cancer cells that were engineered to express split- or linked-luciferase reporter were treated with C26-A2 or A6.

[2] = test system: Wnt;UBC-CreERT+/-;Mtdhfl/fl tumor cells; assay: Tumorsphere assay, Wnt;UBC-CreERT+/-;Mtdhfl/fl tumor cells; assay type: cell-based, mouse; settings: with or without 4-OHT pre-treatment
Method: (§3) For FIGS. 11B-11E, 50 k per well of cells were seeded and treated with indicated compounds the next day. 5 days after treatment, sphere number and size were assessed and normalized to vehicle control group. Data represent mean±SEM. n=3 independent experiments. Significance determined by one-way ANOVA analysis with Dunnett's test for multiple comparisons.
FIG. 11D, Wnt;UBC-Cre^ERT+/−;Mtdh^fl/fl tumor cells without 5 days of 0.02 μg/ml 4-OHT pre-treatment were subjected to the tumorsphere assay.
FIG. 11E, Wnt;UBC-Cre^ERT+/−;Mtdh^fl/fl tumor cells with 5 days of 0.02 μg/ml 4-OHT pre-treatment were subjected to the tumorsphere assay.

[3] = molecular target: T2, MTDH-SND1 interaction (split-luc) in SCP28 cells (Homo sapiens, UniProt Q7KZF4); assay: Split-luciferase reporter in living SCP28 cells; assay type: cell-based; settings: for blocking efficiency over time (stability of the compounds in cells): 100 μM, 5 days after the addition; for split-luc activity in living cells: multiple doses, 30 min after treatment
T2 construct: SND1-NLuc and CLuc-MTDH flanked by BamH 1 and Not 1 restriction sites were inserted into pcDNA3.1 and pRVPTO (retrovrial) vectors; expressed in transfected cells; host or cells: SCP28 cells stably transduced with pRVPTO retroviral vectors (packaged in H29 cells)
Method: as §1
FIG. 4B, The same cells as in FIG. 4A were treated with 100 μM of the compounds for indicated days, and were harvested to measure the luciferase activity. Data represent mean±SEM. n=3 independent experiments.
as §2

[4] = test system: PyMT;UBC-CreERT+/-;Mtdhfl/fl wild type tumor cells; assay: Tumorsphere assay, PyMT;UBC-CreERT+/-;Mtdhfl/fl wild type tumor cells; assay type: cell-based, mouse; settings: 5 days after treatment
Method: as §3, with “FIG. 4C, PyMT;UBC-Cre^ERT+/−;Mtdh^fl/fl cells without 5 days of 0.02 μg/ml 4-OHT pre-treatment was employed for tumorsphere assay.” for “For FIGS. 11B-11E,”, “seed” for “seeded”, “Sidak's” for “Dunnett's”
Next, PyMT; UBC-Cre^ERT+/−;Mtdh^fl/fl tumor cells: 1) with or without Mtdh pre-depletion; 2) with or without endogenous Snd1 knockdown; or 3) in combination were employed for tumorsphere assay followed by the compound treatments. […] The results were confirmed using C3 and Wnt;UBC-Cre^ERT+/−;Mtdh^fl/fl tumorspheres (FIG. 11B-11E). Taken together, these findings confirmed that the anti-tumor effect of C26-A2 and A6 is dependent on their specific effect on blocking MTDH-SND1 interaction.

[5] = test system: PyMT tumor cells with Mtdh KO or Snd1 KD; assay: Tumorsphere assay, PyMT;UBC-CreERT+/-;Mtdhfl/fl cells with Mtdh KO or Snd1 KD; assay type: cell-based, mouse; settings: Mtdh KO (4-OHT pre-treatment) or Snd1 KD
Method: as §3, with “FIG. 4D, PyMT;UBC-Cre^ERT+/−;Mtdh^fl/fl cells with 5 days of 0.02 μg/ml 4-OHT pre-treatment was employed for tumorsphere assay.” for “For FIGS. 11B-11E,”, “seed” for “seeded”, “Sidak's” for “Dunnett's”
FIG. 4E, PyMT;UBC-Cre^ERT+/−;Mtdh^fl/fl cells with or without SND1 knockdown, or without 5 days of 0.02 μg/ml 4-OHT pre-treatment were subjected to the tumorsphere assay and then treated with 200 μM of C26-A6 similar to FIG. 4C. Data represent mean SEM. n=3 independent experiments. Significance determined by two tailed Student's t-test.
FIG. 4F, PyMT;UBC-Cre^ERT+/−;Mtdh^fl/fl cells with or without SND1 knockdown, or with 5 days of 0.02 μg/ml 4-OHT pre-treatment were subjected to the tumorsphere assay and then treated with 200 μM of C26-A6 similar to FIG. 4C. Data represent mean±SEM. n=3 independent experiments. Significance determined by two tailed Student's t-test.
Next, PyMT; UBC-Cre^ERT+/−;Mtdh^fl/fl tumor cells: 1) with or without Mtdh pre-depletion; 2) with or without endogenous Snd1 knockdown; or 3) in combination were employed for tumorsphere assay followed by the compound treatments. […]

[6] = test system: C3;UBC-CreERT+/-;Mtdhfl/fl tumor cells; assay: Tumorsphere assay, C3;UBC-CreERT+/-;Mtdhfl/fl tumor cells; assay type: cell-based, mouse; settings: with or without 4-OHT pre-treatment
Method: as §3
FIG. 11B, C3; UBC-Cre^ERT+/−;Mtdh^fl/fl tumor cells (FIGS. 11D, 11E) without 5 days of 0.02 μg/ml 4-OHT pre-treatment were subjected to the tumorsphere assay.
FIG. 11C, C3; UBC-Cre^ERT+/−;Mtdh^fl/fl tumor cells with 5 days of 0.02 μg/ml 4-OHT pre-treatment were subjected to the tumorsphere assay.

Caco-2 cells = assay: Caco-2 cell based permeability test; assay type: in vitro ADME; settings: 5 μM, A-to-B and B-to-A, 120 min
Method: FIG. 11A, Caco-2 cells were employed to test cell permeability of C26-A2 and A6. 5 μM of compounds were dosed on both apical side (A-to-B) and basolateral side (B-to-A). Samples were taken from the donor and receiver chambers at 120 min after treatment. All samples were assayed by LC-MS/MS using electrospray ionization. The apparent permeability (Papp) and percent recovery were calculated.
C26s cell permeability test. The cell permeability of C26-A2 and A6 were determined with monolayer of Caco-2 cells with both the apical-to-basolateral (A-to-B) and basolateral-to-apical (B-to-A) directions by Absorption Systems LLC Detailed protocol can be found in previous studies.

T2 sequence (Q7KZF4 with tags, fused parts or gaps): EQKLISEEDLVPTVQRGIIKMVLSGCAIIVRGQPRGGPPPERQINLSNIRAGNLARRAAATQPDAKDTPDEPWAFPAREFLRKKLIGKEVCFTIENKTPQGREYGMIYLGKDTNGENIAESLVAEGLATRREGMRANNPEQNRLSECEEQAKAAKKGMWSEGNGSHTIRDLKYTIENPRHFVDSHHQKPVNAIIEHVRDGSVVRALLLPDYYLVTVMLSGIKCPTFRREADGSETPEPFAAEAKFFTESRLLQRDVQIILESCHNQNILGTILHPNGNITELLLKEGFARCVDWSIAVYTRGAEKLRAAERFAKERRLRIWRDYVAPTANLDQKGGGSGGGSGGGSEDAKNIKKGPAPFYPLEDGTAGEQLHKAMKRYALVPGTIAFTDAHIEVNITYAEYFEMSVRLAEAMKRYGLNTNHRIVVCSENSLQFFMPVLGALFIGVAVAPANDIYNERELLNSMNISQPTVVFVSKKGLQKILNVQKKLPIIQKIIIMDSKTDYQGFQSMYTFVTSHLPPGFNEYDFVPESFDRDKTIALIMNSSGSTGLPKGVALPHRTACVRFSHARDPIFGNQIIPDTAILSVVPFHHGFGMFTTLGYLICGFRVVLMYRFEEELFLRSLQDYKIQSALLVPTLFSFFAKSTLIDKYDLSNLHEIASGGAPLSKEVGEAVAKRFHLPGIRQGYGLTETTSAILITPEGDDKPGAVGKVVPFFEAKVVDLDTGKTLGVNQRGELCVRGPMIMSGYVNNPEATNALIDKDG
T1 sequence (P08659 with tags, fused parts or gaps INS416[withheld]): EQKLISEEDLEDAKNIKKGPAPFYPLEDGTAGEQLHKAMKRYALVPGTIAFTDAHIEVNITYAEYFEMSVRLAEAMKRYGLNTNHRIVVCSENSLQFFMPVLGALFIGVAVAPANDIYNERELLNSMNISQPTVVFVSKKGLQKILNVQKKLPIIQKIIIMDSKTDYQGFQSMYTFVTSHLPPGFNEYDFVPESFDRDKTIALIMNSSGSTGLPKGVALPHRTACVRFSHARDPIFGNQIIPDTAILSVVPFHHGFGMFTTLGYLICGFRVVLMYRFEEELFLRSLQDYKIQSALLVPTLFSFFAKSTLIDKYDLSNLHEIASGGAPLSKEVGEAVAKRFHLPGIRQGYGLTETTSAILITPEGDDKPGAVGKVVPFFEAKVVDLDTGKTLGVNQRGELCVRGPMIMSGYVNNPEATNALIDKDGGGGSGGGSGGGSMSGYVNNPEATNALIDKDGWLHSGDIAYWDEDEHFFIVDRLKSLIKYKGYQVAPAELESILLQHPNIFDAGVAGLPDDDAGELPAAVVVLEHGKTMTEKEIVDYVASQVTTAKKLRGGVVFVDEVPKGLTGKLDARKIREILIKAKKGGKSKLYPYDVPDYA

Row | SMILES | linked-luc activity in living cells [1] | tumorsphere formation (sphere number and size) [2] | blocking efficiency over time (stability of the compounds in cells) [3] | split-luc activity in living cells [3] | tumorsphere formation (sphere number and size) [4] | tumorsphere formation (sphere number and size) [5] | tumorsphere formation (sphere number and size) [6] | cell permeability (Caco-2 cells)
1 | COc1ccc(Cl)cc1S(=O)(=O)Nc1cccn2ncnc12 [Analog C26-A2] | without significantly affecting linked-luc activity | confirmed | not significantly changed | inhibited split-luc activity in living cells in a dose dependent manner | inhibited spheres | no effects | confirmed | highly permeable
2 | COc1ccc(Cl)cc1S(=O)(=O)Nc1cccn2nc(C)nc12 [Analog C26-A6] | without significantly affecting linked-luc activity | confirmed | not significantly changed | inhibited split-luc activity in living cells in a dose dependent manner | inhibited spheres | no effects | confirmed | highly permeable

Reference: patent publication US20240398767A1, “INHIBITORS OF THE MTDH-SND1 PROTEIN COMPLEX FOR CANCER THERAPY” (The Trustees of Princeton University, priority 2021, published 2024)
